Values of other authors in PMC4096870 (ChemMedChem, 2014).
pIC50, pKi: −log10 of the molar value.

Row | Compound | pKi (YopH) | kinact (YopH) | kinact/KI (YopH) | pIC50 (LYP)
1 | O=P(O)(O)C(Br)c1ccccc1 (stereo not drawn) [BBP, α-bromobenzyl phosphonate] | 2.39 | 0.002 s⁻¹ | 0.49 M⁻¹ s⁻¹ | 
2 | C=CS(=O)(=O)c1ccccc1 [PVS, phenyl vinyl sulfone] | 3.46 | 0.001 s⁻¹ | 2.9 M⁻¹ s⁻¹ | 
3 | C=CS(=O)(=O)Oc1ccccc1 [PVSN, phenyl vinyl sulfonate] | 3.54 | 0.01 s⁻¹ |  | 
4 | O=C(Oc1cc(O)cc2c1C[C@@H](OC(=O)c1cc(O)c(O)c(O)c1)[C@@H](c1cc(O)c(O)c(O)c1)O2)c1cc(O)c(O)c(O)c1 [epigallocatechin-3,5-digallate] |  |  |  | 7.30
